≈ marks a conversion by molar mass, not a printed value. *1 amine or outer side, *2 acyl side, *3 side chain or, on linkers, in order; H or OH if unused. Where a SMILES comes first, the peptide text is derived from it. [ ]: non-standard residue; d: D form. dAla(ψthiazole) = C[C@@H](N[*:1])c1nc(C(=O)[*:2])cs1; Trp(4-OMe) = COc1cccc2[nH]cc(C[C@H](N)C(=O)O)c12; X1 = CC(=O)[C@](C)(N[*:1])C(=O)[*:2]; Dhb = C/C=C(\N)C(=O)O; Sar = CNCC(=O)O
Assays:
[1] = Selectivity index, ratio of CC50 for human Huh7.5 cells to EC50 for antiviral activity against HCV infected in human Huh7.5 cells; format: toxicity, cell-based; conditions: read-out: Ratio CC50/EC50
[2] = test system: Hepatitis C virus; assay: Antiviral activity against HCV infected in human Huh7.5 cells assessed as reduction in viral RNA level measured after 72 hrs by RT-PCR analysis; format: functional, organism-based, Hepacivirus hominis; conditions: Huh7.5, 72 h
[3] = Cytotoxicity against human Huh7.5 cells; format: toxicity, cell-based, Huh-7.5
[4] = test system: Morganella morganii; assay: Antibacterial activity against multidrug-resistant Morganella morganii KL-225 measured after 24 hrs by broth microdilution method; format: functional
[5] = test system: Escherichia coli; assay: Antibacterial activity against Escherichia coli measured after 24 hrs by broth microdilution method; format: functional
[6] = test system: Klebsiella pneumoniae; assay: Antibacterial activity against Klebsiella pneumoniae ATCC700603 measured after 24 hrs by broth microdilution method; format: functional
[7] = test system: Staphylococcus aureus; assay: Antibacterial activity against methicillin-resistant Staphylococcus aureus ATCC33591 measured after 24 hrs by broth microdilution method; format: functional
[8] = test system: Morganella morganii; assay: Antibacterial activity against beta-lactamase-producing Morganella morganii ATCC25830 measured after 24 hrs by broth microdilution method; format: functional
[9] = test system: Staphylococcus aureus; assay: Antibacterial activity against methicillin-sensitive Staphylococcus aureus ATCC29213 measured after 24 hrs by broth microdilution method; format: functional
[10] = test system: Staphylococcus epidermidis; assay: Antibacterial activity against Staphylococcus epidermidis ATCC12228 measured after 24 hrs by broth microdilution method; format: functional
[11] = test system: Bacillus subtilis; assay: Antibacterial activity against Bacillus subtilis ATCC6633 measured after 24 hrs by broth microdilution method; format: functional
[12] = test system: Staphylococcus aureus; assay: Antibacterial activity against methicillin-resistant Staphylococcus aureus R6101 measured after 24 hrs by broth microdilution method; format: functional
[13] = test system: Pseudomonas aeruginosa; assay: Antibacterial activity against Pseudomonas aeruginosa ATCC27853 measured after 24 hrs by broth microdilution method; format: functional
[14] = test system: Influenza A virus; assay: Antiviral activity against Influenza A virus A/WSN/33(H1N1) infected in HEK293T cells pretreated for 2 hrs followed by viral infection and measured after 24 hrs by Gaussia luciferase assay; format: functional, organism-based; conditions: HEK-293T

SMILES | selectivity ratio [1] | EC50 [2] [µM] | CC50 [3] [µM] | MIC [4] [µg/mL] | MIC [5] [µg/mL] | MIC [6] [µg/mL] | MIC [7] [µg/mL] | MIC [8] [µg/mL] | MIC [9] [µg/mL] | MIC [10] [µg/mL] | MIC [11] [µg/mL] | MIC [12] [µg/mL] | MIC [13] [µg/mL] | EC50 [14] [µM]
CC(C)OC(=O)[C@H](C)N[P@@](=O)(OC[C@H]1O[C@@H](n2ccc(=O)[nH]c2=O)[C@](C)(F)[C@@H]1O)Oc1ccccc1 | > 3330 | 0.06 | > 200 |  |  |  |  |  |  |  |  |  |  | 
C/C=C1\NC(=O)[C@@H](C)NC(=O)CNC(=O)[C@@H](CC)NC(=O)[C@H](Cc2c[nH]c3cccc(OC)c23)NC(=O)c2csc(n2)[C@@H](C)NC(=O)CN(C)C1=O |  |  |  | > 160 | > 160 | > 160 | > 160 | > 160 | > 160 | > 160 | > 160 | > 160 | > 160 | > 50
C/C=C1\NC(=O)[C@@H](CC)NC(=O)CNC(=O)[C@](C)(C(C)=O)NC(=O)[C@H](Cc2c[nH]c3cccc(OC)c23)NC(=O)c2csc(n2)[C@@H](C)NC(=O)CN(C)C1=O | > 17.7 | 6.3 | > 111 | 20 (≈ 25.6 µM) | > 160 | > 160 | 0.31 (≈ 0.397 µM) | 20 (≈ 25.6 µM) | 2.5 (≈ 3.21 µM) | 2.5 (≈ 3.21 µM) | > 160 | 10 (≈ 12.8 µM) | > 160 | 
C/C=C1\NC(=O)[C@@H](CC)NC(=O)CNC(=O)[C@](C)([C@@H](C)O)NC(=O)[C@H](Cc2c[nH]c3cccc(OC)c23)NC(=O)c2csc(n2)[C@@H](C)NC(=O)CN(C)C1=O |  |  |  | > 160 | > 160 | > 160 | 1.25 (≈ 1.6 µM) | 160 (≈ 205 µM) | 10 (≈ 12.8 µM) | 0.62 (≈ 0.793 µM) | > 160 | 40 (≈ 51.2 µM) | > 160 | > 50
C/C=C1\NC(=O)[C@@H](CC)NC(=O)CNC(=O)[C@](C)([C@H](C)O)NC(=O)[C@H](Cc2c[nH]c3cccc(OC)c23)NC(=O)c2csc(n2)[C@@H](C)NC(=O)CN(C)C1=O | > 2 | 98.6 | > 200 | 160 (≈ 205 µM) | > 160 | > 160 | 2.5 (≈ 3.2 µM) | 80 (≈ 102 µM) | 20 (≈ 25.6 µM) | 1.25 (≈ 1.6 µM) | > 160 | 40 (≈ 51.2 µM) | > 160 | > 50
C/C=C1\NC(=O)[C@@H](C)NC(=O)CNC(=O)[C@](C)(C(C)=O)NC(=O)[C@H](Cc2c[nH]c3cccc(OC)c23)NC(=O)c2csc(n2)[C@@H](C)NC(=O)CNC1=O | > 4.3 | 46.9 | > 200 | > 160 | > 160 | > 160 | > 160 | > 160 | > 160 | > 160 | > 160 | > 160 | > 160 | > 50
C/C=C1\NC(=O)[C@@H](CC)NC(=O)CNC(=O)[C@](C)(C(C)=O)NC(=O)[C@H](Cc2c[nH]c3cccc(OC)c23)NC(=O)c2csc(n2)[C@@H](C)NC(=O)CNC1=O | > 1.1 | 98.5 | > 106 | > 160 | > 160 | > 160 | 160 (≈ 209 µM) | > 160 | > 160 | 160 (≈ 209 µM) | > 160 | > 160 | > 160 | > 50
C=C1NC(=O)[C@@H](CC)NC(=O)CNC(=O)[C@](C)(C(C)=O)NC(=O)[C@H](Cc2c[nH]c3cccc(OC)c23)NC(=O)c2csc(n2)[C@@H](C)NC(=O)CN(C)C1=O |  |  |  | 40 (≈ 52.2 µM) | > 160 | > 160 | 1.25 (≈ 1.63 µM) | 40 (≈ 52.2 µM) | 10 (≈ 13.1 µM) | 5 (≈ 6.53 µM) | > 160 | 40 (≈ 52.2 µM) | > 160 | > 50
C/C=C1\NC(=O)[C@@H](C)NC(=O)CNC(=O)[C@](C)(C(C)=O)NC(=O)[C@H](Cc2c[nH]c3cccc(OC)c23)NC(=O)c2csc(n2)[C@@H](C)NC(=O)CN(C)C1=O (cyclo([Dhb][Sar][dAla(ψthiazole)][Trp(4-OMe)][X1]G[dA])) | > 16.6 | 2.2 | > 36.5 |  |  |  |  |  |  |  |  |  |  | 
C[C@H]1COc2c(N3CCN(C)CC3)c(F)cc3c(=O)c(C(=O)O)cn1c23.C[C@H]1COc2c(N3CCN(C)CC3)c(F)cc3c(=O)c(C(=O)O)cn1c23.O [LEVOFLOXACIN] |  |  |  | 5 |  |  | 0.078 | < 0.078 | 0.078 | 0.16 | < 0.078 | 5 |  | 
Cc1onc(-c2ccccc2)c1C(=O)N[C@@H]1C(=O)N2[C@@H]1SC(C)(C)[C@@H]2C(=O)O [OXACILLIN] |  |  |  | > 160 |  |  | 80 (≈ 199 µM) | 40 (≈ 99.6 µM) | 0.078 (≈ 0.194 µM) | 0.16 (≈ 0.399 µM) | < 0.078 | > 160 |  | 
CO[C@H]1/C=C/O[C@@]2(C)Oc3c(C)c(O)c4c(O)c(c(/C=N/N5CCN(C)CC5)c(O)c4c3C2=O)NC(=O)/C(C)=C\C=C\[C@H](C)[C@H](O)[C@@H](C)[C@@H](O)[C@@H](C)[C@H](OC(C)=O)[C@@H]1C [RIFAMPIN] |  |  |  | 10 (≈ 12.2 µM) |  |  | < 0.078 | 10 (≈ 12.2 µM) | < 0.078 | < 0.078 | < 0.078 | 10 (≈ 12.2 µM) |  | 
CN[C@H](CC(C)C)C(=O)N[C@H]1C(=O)N[C@@H](CC(N)=O)C(=O)N[C@H]2C(=O)N[C@H]3C(=O)N[C@H](C(=O)N[C@H](C(=O)O)c4cc(O)cc(O)c4-c4cc3ccc4O)[C@H](O)c3ccc(c(Cl)c3)Oc3cc2cc(c3O[C@@H]2O[C@H](CO)[C@@H](O)[C@H](O)[C@H]2O[C@H]2C[C@](C)(N)[C@H](O)[C@H](C)O2)Oc2ccc(cc2Cl)[C@H]1O [VANCOMYCIN] |  |  |  | > 160 |  |  | 0.62 (≈ 0.428 µM) | > 160 | 1.25 (≈ 0.863 µM) | 1.25 (≈ 0.863 µM) | < 0.078 | > 160 |  | 

From ChEMBL document CHEMBL5120904, “Zelkovamycins F and G, Cyclopeptides with Cα-Methyl-threonine Residues, from an Endophytic Kitasatospora sp” (J Nat Prod, 2022)
